According to patent US20100029752A1, “NOVEL COMPOUNDS, PHARMACEUTICAL COMPOSITIONS CONTAINING SAME, AND METHODS OF USE FOR SAME” (priority 2005, published 2010):
Converted amounts (≈) assume the structure as drawn. Where two headings read alike, the source gives them in different places.

Columns and labels:
Weight loss screen = format: in vivo, Balb/C mice; conditions: 60 mg/kg intraperitoneally
Description: Balb/C mice (Jackson Labs) are utilized for the initial weight loss screening. Animals are housed in temperature and 12 hour day/night cycle rooms and fed mouse chow and water ad lib. Three mice are utilized for each compound tested with vehicle controls in triplicate per experiment. For the experiments, mice are housed separately for each compound tested three mice to a cage. Compounds are diluted in DMSO at 10 mg/ml and mice are injected intraperitoneally with 60 mg/kg in approximately 100 μl of DMSO or with vehicle alone. Mice are observed and weighed daily; average weights and standard errors are computed with Excel (Microsoft). The experiment continues until treated animals reach their pretreatment weights. Select compounds are tested in animals housed in metabolic cages. Dosing of animals are identical to the screening experiments with three animals to a single metabolic cage. Animal weights, water and food consumption, and urine and feces production are measured daily.

FAS = target: T1, FAS (Homo sapiens, UniProt P49327); experiment: FAS (IC50) marked (SB); format: biochemical; conditions: value marked (SB), not defined
T1 construct: Human FAS was purified from cultured ZR-75-1 human breast cancer cells; endogenous in cells

[1] = system: Pseudomonas aeruginosa (ATCC # 27853); experiment: Broth microdilution MIC, P. aeruginosa; format: cell-based; conditions: for PSAE/MH (MIC): Mueller Hinton Broth
Description: (§1) A broth microdilution assay is used to assess the antimicrobial activity of the compounds. […] Microorganisms tested include Staphylococcus aureus (ATCC # 29213), Enterococcus faecalis (ATCC # 29212), Pseudomonas aeruginosa (ATCC # 27853), and Escherichia coli (ATCC # 25922). The assay is performed in two growth media, Mueller Hinton Broth and Trypticase Soy Broth. A blood (Tsoy/5% sheep blood) agar plate is inoculated from frozen stocks maintained in T soy broth containing 10% glycerol and incubated overnight at 37° C. Colonies are suspended in sterile broth so that the turbidity matches the turbidity of a 0.5 McFarland standard. The inoculum is diluted 1:10 in sterile broth (Mueller Hinton or Trypticase soy) and 195 ul is dispensed per well of a 96-well plate. The compounds to be tested, dissolved in DMSO, are added to the wells in 5 ul volume at the following concentrations: 25, 12.5, 6.25, 3.125, 1.56 and 0.78 ug/ml in duplicate. Additional concentrations are tested if required. 5 ul of DMSO added to duplicate wells are the vehicle control. Serial dilutions of positive control compounds, vancomycin (E. faecalis and S. aureus) and tobramycin (E. coli and P. aeruginosa), are included in each run. After 24 hours of incubation at 37° C., plates are read at OD600 on a Molecular Devices SpectraMax Plus Spectrophotometer. Average OD600 values are computed using SOFTmax Pro Software (Molecular Devices) and MIC values are determined by linear regression analysis using Prism version 3.02 (Graph Pad Software, San Diego). The MIC is defined as the concentration of compound required to produce an OD600 reading equivalent to 10% of the vehicle control reading.

[2] = system: Enterococcus faecalis (ATCC # 29212); experiment: Broth microdilution MIC, E. faecalis; format: cell-based; conditions: for MIC: Enterococcus faecalis, ATCC29212
Description: as §1

[3] = system: Staphylococcus aureus (ATCC # 29213); experiment: Broth microdilution MIC, S. aureus; format: cell-based; conditions: for MIC: Staphylococcus aureus, ATCC29213
Description: as §1

[4] = system: Escherichia coli (ATCC # 25922); experiment: Broth microdilution MIC, E. coli; format: cell-based; conditions: for MIC: Escherichia coli, ATCC25922
Description: as §1

[5] = Mueller Hinton Broth, read-out: SA/MH (MIC)
[6] = Trypticase Soy Broth, read-out: EF/Tsoy (MIC)
[7] = Mueller Hinton Broth, read-out: EF/MH (MIC)

T1 sequence (P49327 whole entry): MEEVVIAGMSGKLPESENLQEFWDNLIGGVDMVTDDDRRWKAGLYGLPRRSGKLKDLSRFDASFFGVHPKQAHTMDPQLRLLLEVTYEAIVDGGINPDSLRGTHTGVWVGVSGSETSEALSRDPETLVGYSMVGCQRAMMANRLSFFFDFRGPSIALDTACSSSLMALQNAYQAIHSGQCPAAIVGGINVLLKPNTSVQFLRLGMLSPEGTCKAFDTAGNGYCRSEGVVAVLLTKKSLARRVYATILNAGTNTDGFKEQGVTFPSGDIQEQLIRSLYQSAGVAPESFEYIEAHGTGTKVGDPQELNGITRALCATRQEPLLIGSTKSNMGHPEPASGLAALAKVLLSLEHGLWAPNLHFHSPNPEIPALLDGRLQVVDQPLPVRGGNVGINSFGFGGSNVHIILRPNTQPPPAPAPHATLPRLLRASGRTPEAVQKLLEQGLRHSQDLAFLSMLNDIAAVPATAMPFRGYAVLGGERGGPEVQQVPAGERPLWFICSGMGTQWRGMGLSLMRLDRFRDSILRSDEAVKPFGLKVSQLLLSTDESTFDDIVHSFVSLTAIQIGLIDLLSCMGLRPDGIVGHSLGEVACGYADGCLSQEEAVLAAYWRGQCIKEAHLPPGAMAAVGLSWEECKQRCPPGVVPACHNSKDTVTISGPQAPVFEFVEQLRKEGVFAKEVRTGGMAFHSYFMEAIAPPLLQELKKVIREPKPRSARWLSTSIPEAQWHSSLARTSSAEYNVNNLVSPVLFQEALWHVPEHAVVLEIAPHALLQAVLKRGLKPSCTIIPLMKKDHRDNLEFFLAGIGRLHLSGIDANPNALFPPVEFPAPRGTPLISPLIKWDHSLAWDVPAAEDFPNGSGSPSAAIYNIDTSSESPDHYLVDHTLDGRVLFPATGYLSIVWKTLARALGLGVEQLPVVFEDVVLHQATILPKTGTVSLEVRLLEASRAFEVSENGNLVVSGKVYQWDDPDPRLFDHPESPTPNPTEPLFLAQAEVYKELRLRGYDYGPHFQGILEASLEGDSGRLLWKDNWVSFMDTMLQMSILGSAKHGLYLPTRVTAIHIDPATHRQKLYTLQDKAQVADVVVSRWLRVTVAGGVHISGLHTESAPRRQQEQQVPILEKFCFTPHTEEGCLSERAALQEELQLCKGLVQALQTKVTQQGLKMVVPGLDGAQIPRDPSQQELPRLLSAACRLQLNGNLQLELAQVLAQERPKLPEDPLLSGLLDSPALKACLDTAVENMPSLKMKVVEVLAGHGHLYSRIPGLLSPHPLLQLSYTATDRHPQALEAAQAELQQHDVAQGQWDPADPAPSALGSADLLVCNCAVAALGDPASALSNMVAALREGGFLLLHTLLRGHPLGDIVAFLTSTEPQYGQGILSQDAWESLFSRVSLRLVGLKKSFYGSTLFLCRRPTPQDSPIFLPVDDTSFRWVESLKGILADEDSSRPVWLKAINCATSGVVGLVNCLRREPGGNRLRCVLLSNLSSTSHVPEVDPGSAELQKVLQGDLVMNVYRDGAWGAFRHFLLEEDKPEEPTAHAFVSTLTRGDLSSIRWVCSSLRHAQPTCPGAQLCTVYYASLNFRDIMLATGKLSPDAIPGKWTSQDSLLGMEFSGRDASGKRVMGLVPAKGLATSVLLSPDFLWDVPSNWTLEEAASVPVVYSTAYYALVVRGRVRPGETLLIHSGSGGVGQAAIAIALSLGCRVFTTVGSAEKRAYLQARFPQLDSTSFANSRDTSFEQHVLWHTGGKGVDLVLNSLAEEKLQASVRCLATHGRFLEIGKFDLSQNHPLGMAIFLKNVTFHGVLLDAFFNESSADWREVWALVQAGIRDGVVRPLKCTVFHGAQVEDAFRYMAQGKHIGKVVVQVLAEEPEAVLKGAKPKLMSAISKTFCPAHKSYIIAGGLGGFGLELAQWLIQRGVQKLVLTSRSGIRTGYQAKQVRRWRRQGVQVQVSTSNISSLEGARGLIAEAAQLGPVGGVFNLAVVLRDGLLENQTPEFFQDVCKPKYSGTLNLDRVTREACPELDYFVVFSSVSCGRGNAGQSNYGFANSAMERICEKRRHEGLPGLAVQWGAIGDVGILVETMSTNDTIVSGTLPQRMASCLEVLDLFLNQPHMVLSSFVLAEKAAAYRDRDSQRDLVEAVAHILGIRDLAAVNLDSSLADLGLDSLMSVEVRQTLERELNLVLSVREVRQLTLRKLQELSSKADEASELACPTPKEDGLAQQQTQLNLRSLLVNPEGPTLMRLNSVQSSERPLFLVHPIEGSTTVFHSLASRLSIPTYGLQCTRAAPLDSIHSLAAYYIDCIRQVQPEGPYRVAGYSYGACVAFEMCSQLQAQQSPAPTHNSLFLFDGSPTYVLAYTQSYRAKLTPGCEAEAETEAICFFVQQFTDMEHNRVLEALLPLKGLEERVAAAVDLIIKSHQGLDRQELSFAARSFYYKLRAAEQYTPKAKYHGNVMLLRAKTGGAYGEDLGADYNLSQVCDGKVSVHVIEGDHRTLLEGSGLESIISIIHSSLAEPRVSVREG

Structure (SMILES)	Weight Loss (Weight loss screen; day 1)	IC50 (FAS) [µM]	PSAE/MH (MIC) [1]	PSAE/Tsoy (MIC) ([1]; Trypticase Soy Broth)	EF/MH (MIC) ([2]; Mueller Hinton Broth)	EF/Tsoy (MIC) ([2]; Trypticase Soy Broth)	MIC [3, 5] [mg/L]	MIC ([3]; Trypticase Soy Broth, read-out: SA/Tsoy (MIC)) [mg/L]	MIC ([4]; Mueller Hinton Broth, read-out: Ecoli/MH (MIC)) [mg/L]	Ecoli/Tsoy (MIC) ([4]; Trypticase Soy Broth)	Weight Loss (Weight loss screen; day 2)	MIC ([1]; Pseudomonas aeruginosa, ATCC27853, Trypticase Soy Broth, read-out: PSAE/Tsoy (MIC)) [mg/L]	MIC [2, 6] [mg/L]	SA/Tsoy (MIC) ([3]; Trypticase Soy Broth)	MIC ([4]; Trypticase Soy Broth, read-out: Ecoli/Tsoy (MIC)) [mg/L]	Ecoli/MH (MIC) ([4]; Mueller Hinton Broth)	MIC [2, 7] [mg/L]	SA/MH (MIC) ([3]; Mueller Hinton Broth)
COC(=O)c1sc(C(=O)NNc2ccc(Cl)cc2)cc1O	60 mg/kg: +1.2% (day 1)	305	Neg	Neg	Neg	Neg	66 (≈ 202 µM)	227 (≈ 695 µM)	136 (≈ 416 µM)	Neg	–	–	–	–	–	–	–	–
CCCCCCCCNC(=O)c1cc(O)cs1	–	325	Neg	(MIC) Neg	Neg	–	82 (≈ 321 µM)	–	–	–	60 mg/kg: 1.6% (day 2)	83 (≈ 325 µM)	123 (≈ 482 µM)	Neg	89 (≈ 348 µM)	Neg	–	–
C=CCNC(=O)c1cc(O)c(C(=O)OC)s1	60 mg/kg: +2.3% (day 1)	–	Neg	Neg	–	–	80 (≈ 332 µM)	–	–	Neg	–	–	134 (≈ 555 µM)	Neg	–	Neg	88 (≈ 365 µM)	–
CCCCCCCCNC(=O)c1cc(O)c(C(=O)OC)s1	–	–	Neg	Neg	Neg	Neg	–	–	–	Neg	–	–	–	Neg	–	Neg	–	Neg
COC(=O)c1sc(C(=O)O)cc1O	–	–	Neg	Neg	–	Neg	149 (≈ 737 µM)	–	–	Neg	–	–	–	Neg	–	Neg	101 (≈ 500 µM)	–
